Source: patent publication US9546152B2 (MERCK SHARP & DOHME CORP., priority 2012, dated 2017)

Columns and labels:
human orexin-2 receptor [1] = target: T1, human orexin-2 receptor (Homo sapiens (Human), UniProt O43614); experiment: FLIPR Ca2+ Flux Assay, orexin-2 receptor; type: cell-based; conditions: CHO cells expressing the human orexin-2 receptor; agonist 70 pM Ala-6,12 human orexin-A; read-out: hOX2R FLIPR IC50
Method: (§1) In a typical experiment the OX1 and OX2 receptor antagonistic activity of the compounds of the present invention was determined in accordance with the following experimental method. For intracellular calcium measurements, Chinese hamster ovary (CHO) cells expressing the rat orexin-1 receptor or the human orexin-2 receptor, are grown in Iscove's modified DMEM containing 2 mM L-glutamine, […], 1% hypoxanthine-thymidine supplement, 100 U/ml penicillin, 100 μg/ml streptomycin and 10% heat-inactivated fetal calf serum (FCS). The cells are seeded at 20,000 cells/well into Becton-Dickinson black 384-well clear bottom sterile plates coated with poly-D-lysine. All reagents were from GIBCO-Invitrogen Corp. The seeded plates are incubated overnight at 37° C. and 5% CO2. Ala-6,12 human orexin-A as the agonist is prepared as a 1 mM stock solution in 1% bovine serum albumin (BSA) and diluted in assay buffer (HBSS containing 20 mM HEPES, 0.1% BSA and 2.5 mM probenecid, pH7.4) for use in the assay at a final concentration of 70 pM. Test compounds are prepared as 10 mM stock solution in DMSO, then diluted in 384-well plates, first in DMSO, then assay buffer. On the day of the assay, cells are washed 3 times with 100 μl assay buffer and then incubated for 60 min (37° C., 5% CO2) in 60 μl assay buffer containing 1 μM Fluo-4AM ester, 0.02% pluronic acid, and 1% BSA. The dye loading solution is then aspirated and cells are washed 3 times with 100 μl assay buffer. 30 μl of that same buffer is left in each well. Within the Fluorescent Imaging Plate Reader (FLIPR, Molecular Devices), test compounds are added to the plate in a volume of 25 μl, incubated for 5 min and finally 25 μl of agonist is added. Fluorescence is measured for each well at 1 second intervals for 5 minutes and the height of each fluorescence peak is compared to the height of the fluorescence peak induced by 70 pM Ala-6,12 orexin-A with buffer in place of antagonist. […] Alternatively, compound potency can be assessed by a radioligand binding assay (described in Bergman et. al. Bioorg. Med. Chem. Lett. 2008, 18, 1425-1430) in which the inhibition constant (Ki) is determined in membranes prepared from CHO cells expressing either the OX1 or OX2 receptor. The intrinsic orexin receptor antagonist activity of a compound which may be used in the present invention may be determined by these assays.

human orexin-2 receptor [2] = target: T1, human orexin-2 receptor; experiment: radioligand binding assay, orexin-2 receptor; conditions: membranes prepared from CHO cells expressing the OX2 receptor; read-out: hOX2R BIND hKi
Method: as §1

rat orexin-1 receptor = rat orexin-1 receptor (Rattus norvegicus (Rat), UniProt P56718); experiment: FLIPR Ca2+ Flux Assay, orexin-1 receptor; type: cell-based; conditions: CHO cells expressing the rat orexin-1 receptor; agonist 70 pM Ala-6,12 human orexin-A; read-out: hOX1R FLIPR IC50
Method: as §1

T1 sequence (O43614 whole entry): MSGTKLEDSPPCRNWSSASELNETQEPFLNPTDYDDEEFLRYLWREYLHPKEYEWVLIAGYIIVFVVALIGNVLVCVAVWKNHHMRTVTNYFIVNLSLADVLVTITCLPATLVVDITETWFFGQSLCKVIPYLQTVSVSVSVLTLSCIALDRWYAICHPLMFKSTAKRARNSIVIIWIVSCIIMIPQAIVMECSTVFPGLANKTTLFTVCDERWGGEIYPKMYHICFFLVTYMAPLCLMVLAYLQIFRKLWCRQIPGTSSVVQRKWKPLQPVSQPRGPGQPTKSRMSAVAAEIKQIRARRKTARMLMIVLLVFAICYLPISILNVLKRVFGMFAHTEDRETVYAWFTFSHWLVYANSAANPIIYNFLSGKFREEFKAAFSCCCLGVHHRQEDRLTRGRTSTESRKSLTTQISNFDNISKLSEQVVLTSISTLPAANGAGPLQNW
Sequence of rat orexin-1 receptor (P56718 whole entry): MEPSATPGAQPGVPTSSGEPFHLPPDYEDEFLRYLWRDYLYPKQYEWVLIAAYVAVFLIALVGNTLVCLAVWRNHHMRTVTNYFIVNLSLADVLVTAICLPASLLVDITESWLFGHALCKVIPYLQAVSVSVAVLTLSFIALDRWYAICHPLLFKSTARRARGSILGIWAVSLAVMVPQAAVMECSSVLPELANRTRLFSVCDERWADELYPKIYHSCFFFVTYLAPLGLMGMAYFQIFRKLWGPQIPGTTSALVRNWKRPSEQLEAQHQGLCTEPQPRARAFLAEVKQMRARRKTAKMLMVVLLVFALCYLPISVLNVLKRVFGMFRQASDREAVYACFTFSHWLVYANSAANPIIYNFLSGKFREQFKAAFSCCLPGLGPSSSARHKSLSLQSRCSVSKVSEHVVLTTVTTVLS

Row | SMILES | IC50 (human orexin-2 receptor [1]) [nM] | Ki (human orexin-2 receptor [2]) [nM] | IC50 (rat orexin-1 receptor) [nM]
1 | Cc1c(C#N)ccnc1O[C@@H]1CC[C@@H](C)N(C(=O)c2ccncc2-c2ccccc2)C1 [Example 23, 3-methyl-2-({(3R,6R)-6-methyl-1-[(3-phenylpyridin-4-yl)carbonyl]piperidin-3-yl}oxy)pyridine-4-carbonitrile] | 69 | 16.6 | 
2 | Cc1c(C#N)ccnc1O[C@@H]1CC[C@@H](C)N(C(=O)c2ccc(Cl)cc2-n2nccn2)C1 [Example 4, 2-{[(3R,6R)-1-{[4-chloro-2-(2H-1,2,3-triazol-2-yl)phenyl]carbonyl}-6-methylpiperidin-3-yl]oxy}-3-methylpyridine-4-carbonitrile] | 12 | 0.4 | 
3 | Cc1c(C#N)ccnc1O[C@@H]1CC[C@@H](C)N(C(=O)c2ccccc2OC(F)(F)F)C1 [Example 62, 3-methyl-2-{[(3R,6R)-6-methyl-1-{[2-(trifluoromethoxy)phenyl]carbonyl}piperidin-3-yl]oxy}pyridine-4-carbonitrile] | 16 | 0.8 | 
4 | Cc1c(C#N)ccnc1O[C@@H]1CC[C@@H](C)N(C(=O)c2ccccc2-c2nccs2)C1 [Example 44, 3-methyl-2-{[(3R,6R)-6-methyl-1-{[2-(1,3-thiazol-2-yl)phenyl]carbonyl}piperidin-3-yl]oxy}pyridine-4-carbonitrile] | 8 | 0.1 | 
5 | Cc1c(C#N)ccnc1O[C@@H]1CC[C@@H](C)N(C(=O)c2sncc2-c2ccccc2)C1 [Example 20, 3-methyl-2-({(3R,6R)-6-methyl-1-[(4-phenylisothiazol-5-yl)carbonyl]piperidin-3-yl}oxy)pyridine-4-carbonitrile] | 89 | 15.2 | 
6 | CSc1ccc(C(=O)N2C[C@H](Oc3nccc(C#N)c3C)CC[C@H]2C)c(-n2nccn2)n1 [Example 86, 3-methyl-2-{[(3R,6R)-6-methyl-1-{[6-(methylsulfanyl)-2-(2H-1,2,3-triazol-2-yl)pyridin-3-yl]carbonyl}-piperidin-3-yl]oxy}pyridine-4-carbonitrile] | 126 | 5.1 | 
7 | COc1cc(-n2nccn2)c(C(=O)N2C[C@H](Oc3nccc(C#N)c3C)CC[C@H]2C)cn1 [Example 85, 2-{[(3R,6R)-1-{[6-methoxy-4-(2H-1,2,3-triazol-2-yl)pyridin-3-yl]carbonyl}-6-methylpiperidin-3-yl]oxy}-3-methylpyridine-4-carbonitrile] |  | 43.2 | 
8 | Cc1c(C#N)ccnc1O[C@@H]1CC[C@@H](C)N(C(=O)c2c(F)cccc2-c2nccs2)C1 [Example 18, 2-{[(3R,6R)-1-{[2-fluoro-6-(1,3-thiazol-2-yl)phenyl]carbonyl}-6-methylpiperidin-3-yl]oxy}-3-methylpyridine-4-carbonitrile] | 7 | 0.1 | 
9 | CCc1c(C#N)ccnc1O[C@@H]1CC[C@@H](C)N(C(=O)c2ccccc2-n2nccn2)C1 [Example 93, 3-ethyl-2-{[(3R,6R)-6-methyl-1-{[2-(2H-1,2,3-triazol-2-yl)phenyl]carbonyl}piperidin-3-yl]oxy}pyridine-4-carbonitrile] | 8 | 0.1 | 
10 | COc1ccc(C(=O)N2C[C@H](Oc3nccc(C#N)c3C)CC[C@H]2C)c(-c2cnn(C)c2)n1 [Example 80, 2-{[(3R,6R)-1-{[6-methoxy-2-(1-methyl-1H-pyrazol-4-yl)pyridin-3-yl]carbonyl}-6-methylpiperidin-3-yl]oxy}-3-methylpyridine-4-carbonitrile] | 171 |  | 10000
11 | COc1ccc(C(=O)N2C[C@H](Oc3nccc(C#N)c3C)CC[C@H]2C)c(C2CC2)n1 [Example 5, 2-({(3R,6R)-1-[(2-cyclopropyl-6-methoxypyridin-3-yl)carbonyl]-6-methylpiperidin-3-yl}oxy)-3-methylpyridine-4-carbonitrile] | 32 | 1.7 | 
12 | Cc1c(C#N)ccnc1O[C@@H]1CC[C@@H](C)N(C(=O)C2=C(c3ccccn3)CCC2)C1 [Example 63, 3-methyl-2-({(3R,6R)-6-methyl-1-[(2-pyridin-2-ylcyclopent-1-en-1-yl)carbonyl]piperidin-3-yl}oxy)pyridine-4-carbonitrile] | 59 | 4 | 
13 | Cc1c(C#N)ccnc1O[C@@H]1CC[C@@H](C)N(C(=O)c2ccccc2-c2ncco2)C1 [Example 27, 3-methyl-2-{[(3R,6R)-6-methyl-1-{[2-(1,3-oxazol-2-yl)phenyl]carbonyl}piperidin-3-yl]oxy}pyridine-4-carbonitrile] | 17 | 0.3 | 
14 | COc1c(C#N)ccnc1O[C@@H]1CC[C@@H](C)N(C(=O)c2ccsc2-n2nccn2)C1 [Example 106, 3-methoxy-2-{[(3R,6R)-6-methyl-1-{[2-(2H-1,2,3-triazol-2-yl)thiophen-3-yl]carbonyl}piperidin-3-yl]oxy}pyridine-4-carbonitrile] | 8 |  | 1960
15 | Cc1c(C#N)ccnc1O[C@@H]1CC[C@@H](C)N(C(=O)c2ccccc2-c2cscn2)C1 [Example 33, 3-methyl-2-{[(3R,6R)-6-methyl-1-{[2-(1,3-thiazol-4-yl)phenyl]carbonyl}piperidin-3-yl]oxy}pyridine-4-carbonitrile] | 6 | 0.2 | 
16 | COc1ccc(C(=O)N2C[C@H](Oc3nccc(C#N)c3C)CC[C@H]2C)c(-c2ccncc2)n1 [Example 48, 2-({(3R,6R)-1-[(6-methoxy-2,4′-bipyridin-3-yl)carbonyl]-6-methylpiperidin-3-yl}oxy)-3-methylpyridine-4-carbonitrile] | 65 | 8.9 | 
17 | COc1ccc(C(=O)N2C[C@H](Oc3nccc(C#N)c3C)CC[C@H]2C)c(-n2nccn2)c1 [Example 7, 2-{[(3R,6R)-1-{[4-methoxy-2-(2H-1,2,3-triazol-2-yl)phenyl]carbonyl}-6-methylpiperidin-3-yl]oxy}-3-methylpyridine-4-carbonitrile] | 13 | 1.3 | 
18 | Cc1c(C#N)ccnc1O[C@@H]1CC[C@@H](C)N(C(=O)c2ccccc2OC(C)C)C1 [Example 21, 3-methyl-2-{[(3R,6R)-6-methyl-1-{[2-(1-methylethoxy)phenyl]carbonyl}piperidin-3-yl]oxy}pyridine-4-carbonitrile] | 8 | 0.6 | 
19 | Cc1c(C#N)ccnc1O[C@@H]1CC[C@@H](C)N(C(=O)c2nscc2-n2nccn2)C1 [Example 55, 3-methyl-2-{[(3R,6R)-6-methyl-1-{[4-(2H-1,2,3-triazol-2-yl)isothiazol-3-yl]carbonyl}piperidin-3-yl]oxy}pyridine-4-carbonitrile] | 81 | 7.4 | 
20 | Cc1c(C#N)ccnc1O[C@@H]1CC[C@@H](C)N(C(=O)c2cccc(F)c2-n2nccn2)C1 [Example 12, 2-{[(3R,6R)-1-{[3-fluoro-2-(2H-1,2,3-triazol-2-yl)phenyl]carbonyl}-6-methylpiperidin-3-yl]oxy}-3-methylpyridine-4-carbonitrile] | 12 | 1 | 
21 | COc1c(C#N)ccnc1O[C@@H]1CC[C@@H](C)N(C(=O)c2ccc(F)cc2-n2nccn2)C1 [Example 98, 2-{[(3R,6R)-1-{[4-fluoro-2-(2H-1,2,3-triazol-2-yl)phenyl]carbonyl}-6-methylpiperidin-3-yl]oxy}-3-methoxypyridine-4-carbonitrile] | 19 | 0.3 | 
22 | COc1ccc(C(=O)N2C[C@H](Oc3nccc(C#N)c3C)CC[C@H]2C)c(OC)n1 [Example 73, 2-({(3R,6R)-1-[(2,6-dimethoxypyridin-3-yl)carbonyl]-6-methylpiperidin-3-yl}oxy)-3-methylpyridine-4-carbonitrile] |  | 32.7 | 
23 | Cc1c(C#N)ccnc1O[C@@H]1CC[C@@H](C)N(C(=O)c2nscc2-c2ccccc2)C1 [Example 50] | 22 | 2 | 
24 | COc1ccc(C(=O)N2C[C@H](Oc3nccc(C#N)c3C)CC[C@H]2C)c(C2CCC2)n1 [Example 66] | 77 | 1.4 | 
25 | Cc1c(C#N)ccnc1O[C@@H]1CC[C@@H](C)N(C(=O)c2cc(F)ccc2-n2nccn2)C1 [Example 69, 2-{[(3R,6R)-1-{[5-fluoro-2-(2H-1,2,3-triazol-2-yl)phenyl]carbonyl}-6-methylpiperidin-3-yl]oxy}-3-methylpyridine-4-carbonitrile] | 11 | 0.6 | 
